This note sets out measurements from patent US4981789A, “One-step enzymatic conversion of cephalosporin C and derivatives to 7-aminocephalosporanic acid and derivatives” (priority 1987, dated 1991).

The structures appear in SMILES notation.

This assay concerns cephalosporin C amidase. Kind of assay: Conversion of desacetoxycephalosporin C to 7-ADCA by cephalosporin C amidase. In kind it is biochemical, Arthrobacter viscosus ATCC 53594. The procedure:
As already described above, desacetoxycephalosporin C (DOAC) may be converted to 7-aminodesacetoxycephalosporanic acid (7-ADCA) using the enzyme and method of the present invention. This conversion may be illustrated as follows: [drawing 10] Cephalosporin C amidase, prepared as described above in Example 1, was incubated with 2 mg/ml DAOC for 3 hrs at 37° C. The reaction mixture required a pre-chromatography separation step using XAD-16® (Rohm and Haas) macroreticular water insoluble cross linked adsorbent polymer to remove coeluting contaminants. Chromatography was carried out in accordance with the procedures described above in Example 1 (except that the mobile phase consisted of 1 liter deionized water, 1.88 g hexyl sodium sulfonate, 2.025 ml phosphoric acid, and 25 ml acetonitrile, pH 2.75), and established that approximately 0.5 to 1.0% of the original DOAC substrate had been converted to 7-ADCA.

Regarding `CC1=C(C(=O)O)N2C(=O)C(NC(=O)CCCC(N)C(=O)O)C2SC1` (stereo not shown) [DOAC, desacetoxycephalosporin C], the “extent of conversion to 7-ADCA compared with conversion of cephalosporin C to 7-ACA” value is “essentially equivalent to the conversion of cephalosporin C to 7-aminocephalosporanic acid”.
